Experiments:
[1] = target: T1, recombinant human Meningioma Expressed Antigen 5 (MGEA5), also referred to as O-GlcNAcase (OGA) (Homo sapiens, UniProt O60502); experiment: OGA biochemical assay (inhibition of FM-GlcNAc hydrolysis, fluorescence); conditions: for Emax: read-out: Enzymatic Emax (%); for IC50: read-out: Enzymatic hOGA, pIC50 (converted)
T1 construct: Full length OGA enzyme was purchased at OriGene (cat #TP322411); purchased OriGene TP322411
T1 sequence (O60502 1-916): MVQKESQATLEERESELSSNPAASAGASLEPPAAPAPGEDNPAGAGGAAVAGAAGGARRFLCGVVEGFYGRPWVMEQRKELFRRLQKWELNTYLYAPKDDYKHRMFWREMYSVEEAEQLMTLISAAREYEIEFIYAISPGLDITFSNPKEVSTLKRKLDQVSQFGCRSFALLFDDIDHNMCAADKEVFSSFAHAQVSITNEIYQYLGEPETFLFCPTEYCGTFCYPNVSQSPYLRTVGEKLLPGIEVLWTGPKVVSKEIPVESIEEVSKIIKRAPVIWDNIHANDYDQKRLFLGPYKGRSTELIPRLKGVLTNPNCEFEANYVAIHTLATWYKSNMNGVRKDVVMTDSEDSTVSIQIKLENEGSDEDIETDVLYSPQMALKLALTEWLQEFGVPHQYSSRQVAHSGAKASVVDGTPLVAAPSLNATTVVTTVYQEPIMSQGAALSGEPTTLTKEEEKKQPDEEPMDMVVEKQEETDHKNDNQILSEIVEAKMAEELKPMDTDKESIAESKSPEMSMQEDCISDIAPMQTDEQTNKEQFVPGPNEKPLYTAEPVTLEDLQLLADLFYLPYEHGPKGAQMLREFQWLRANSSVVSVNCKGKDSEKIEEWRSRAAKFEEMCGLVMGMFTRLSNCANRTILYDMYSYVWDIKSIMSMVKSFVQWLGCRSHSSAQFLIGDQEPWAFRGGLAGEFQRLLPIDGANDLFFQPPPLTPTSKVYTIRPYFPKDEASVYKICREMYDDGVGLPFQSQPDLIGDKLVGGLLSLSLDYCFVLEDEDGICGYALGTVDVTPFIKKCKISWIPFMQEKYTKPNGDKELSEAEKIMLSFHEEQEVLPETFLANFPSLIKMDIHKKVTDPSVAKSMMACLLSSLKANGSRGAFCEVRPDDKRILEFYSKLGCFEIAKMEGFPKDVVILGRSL
Outline: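 Full-length OGA at 2 nM was pre-incubated 60 min at room temperature with compound, then FM-GlcNAc at 100 uM final was added in citrate/phosphate buffer pH 7.2 with 0.005% Tween-20. After 6 h at room temperature, carbonate pH 11.0 stopped the reaction. Fluorescence read at 485/538 nm; IC50 and Hill coefficient from curve fit against no-inhibitor and saturating-standard controls.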

OGA = target: T2, OGA (Homo sapiens, UniProt O60502); experiment: OGA cellular assay (ICC detection of O-GlcNAcylated proteins in HEK293 cells inducible for P301L mutant human Tau); type: cell-based; conditions: 6 hours incubation; for Emax: HEK293, HEK293 cells inducible for P301L mutant human Tau, maximum = Thiamet G 200 uM; for EC50: HEK293 cells inducible for P301L mutant human Tau, read-out: Cellular hOGA, pEC50 (converted)
T2 construct: HEK293 cells inducible for P301L mutant human Tau (isoform 2N4R) were established at Janssen; endogenous in cells; host or cells: HEK293 cells inducible for P301L mutant human Tau (2N4R)
T2 sequence (O60502 1-916): T1 sequence (O60502 1-916)
Outline: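 HEK293 cells with inducible P301L 2N4R Tau, seeded in low-glucose medium, were exposed to compounds for 6 hours (0.2% DMSO), then PFA-fixed and stained with CTD110.6. Imaging intensity at 488 nm measured O-GlcNAcylation, with Hoechst nuclei counts for toxicity. IC50s came from non-linear regression, with Thiamet G at 200 uM as maximum inhibition.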

Emax [1] [%] | IC50 [1] [µM] | Emax (OGA) [%] | EC50 (OGA) [µM] | Structure (SMILES)
93 | 0.0126 | 59 | 0.1 | CC(c1nc2c(cc1F)OCCO2)N1CCC(Oc2ccc(C(=O)N(C(C)C)C(C)C)nc2)CC1 (centres unmarked) [Compound 123]
98 | 0.0316 | 64 | 0.1 | Cc1cc(OC2CCN(C(C)c3ccc4c(n3)OCCO4)CC2)cc(OC(C)C)n1 (centres unmarked) [Compound 124]
96 | 0.0316 | 91 | 0.126 | Cc1cc(OC2CCN(C(C)c3ccc4c(n3)OCCO4)CC2)cc(C2CC2)n1 (centres unmarked) [Compound 125]
102 | 0.00794 | 95 | 0.0501 | Cc1cc(OC2CCN(C(C)c3nc4c(cc3F)OCCO4)CC2)cc(C#N)n1 (centres unmarked) [Compound 128]
97 | 0.0631 | 83 | 0.126 | CCc1cc(OC2CCN(C(C)c3ccc4c(n3)OCCO4)CC2)cc(C)n1 (centres unmarked) [Compound 129]
100 | 0.0398 | 59 | 0.245 | Cc1cc(OC2CCN(C(C)c3ccc4c(n3)OCCO4)CC2)cc(C(C)C)n1 (centres unmarked) [Compound 130]
70 | 3.98 | -4 | > 1 | CC(c1ccc2c(n1)OCCO2)N1CCC(C)(Oc2ccc(F)cc2)CC1 (centres unmarked) [Compound 131]
63 | 6.31 | 24 | > 1 | Cc1cc(OC2(CF)CCN(C(C)c3ccc4c(n3)OCCO4)CC2)cc(C)n1 (centres unmarked) [Compound 132]
94 | 0.01 | 81 | 0.0631 | COc1cc(COC2CCN(C(C)c3nc4c(cc3F)OCCO4)CC2)cc(C)n1 (centres unmarked) [Compound 134]
100 | 0.02 | 79 | 0.158 | Cc1ccc(COC2CCN(C(C)c3nc4c(cc3F)OCCO4)CC2)cn1 (centres unmarked) [Compound 138]
93 | 0.1 | 42 |  | Cc1ncc(OC2CCN(C(C)c3ccc4c(n3)OCCO4)CC2)cc1F (centres unmarked) [Compound 152]
95 | 0.0316 | 67 | 0.2 | COc1cc(OC2CCN(C(C)c3nc4c(cc3F)OCCO4)CC2)ncc1C#N (centres unmarked) [Compound 153]
94 | 0.0398 | 81 | 0.158 | Cc1cc(COC2CCN(C(C)c3ccc4c(n3)OCC4)CC2)cc(C)n1 (centres unmarked) [Compound 154]
94 | 0.0158 | 67 | 0.0794 | CC(c1nc2c(cc1F)OCCO2)N1CCC(Oc2ccnc(C#N)c2)CC1 (centres unmarked) [Compound 155]
94 | 0.02 | 80 | 0.158 | Cc1cnc(OC2CCN(C(C)c3nc4c(cc3F)OCCO4)CC2)cc1C (centres unmarked) [Compound 157]
99 | 0.0158 | 77 | 0.251 | CC(c1nc2c(cc1F)OCCO2)N1CCC(Oc2ccc(C(F)(F)F)cn2)CC1 (centres unmarked) [Compound 158]
94 | 0.0126 | 75 | 0.0631 | Cc1cc(COC2CCN(C(C)c3nc4c(cc3F)OCCO4)CC2)cc(C)n1 (centres unmarked) [Compound 159]
96 | 0.0126 | 87 | 0.0398 | Cc1cc(COC2CCN(C(C)c3nc4nc(C)sc4cc3F)CC2)cc(C)n1 (centres unmarked) [Compound 160]
97 | 0.02 | 83 | 0.158 | Cc1ccnc(OC2CCN(C(C)c3nc4c(cc3F)OCCO4)CC2)c1 (centres unmarked) [Compound 161]
98 | 0.0126 | 83 | 0.0631 | Cc1cc(OC2CCN(C(C)c3nc4c(cc3F)OCCO4)CC2)ccn1 (centres unmarked) [Compound 162]
92 | 0.126 | 34 | > 1 | CC(c1ccc2c(n1)OCCO2)N1CCC(Oc2cnc(C3CCC3)nc2)CC1 (centres unmarked) [Compound 163]

Reference: US20210122763A1, “OGA INHIBITOR COMPOUNDS” (Janssen Pharmaceutica NV, priority 2018, published 2021)
